Results published in patent publication US20250332157A1, “SOLID COMPOSITION OF GLP-1 RECEPTOR AGONIST” (Hangzhou Zhongmeihuadong Pharmaceutical Co., Ltd., priority 2021, published 2025).
Values joined by “and” are separate entries in the source; they are usually repeats but may differ in a detail not shown here. Equal values may be shown once. Where a name gives a salt, the structure may show the parent alone.

How the values were obtained:
[1] = Forced degradation studies No. 2 of OAD2 2HCl in solution (water, HCl, NaOH, H2O2, UV light), HPLC; format: physicochemical
Protocol: A stock solution was prepared by dissolving 12.90 mg of OAD2 2 HCl in acetonitrile:water (70:30) to a final volume of 25 mL ([…]). For test groups 1 and 2, the test solution was prepared by mixing 2 mL of the stock solution and 2 mL of water. For test groups 3 and 4, the test solution was prepared by mixing 2 mL of the stock solution and 2 mL of 0.1 N HCl solution. For test groups 5 and 6, the test solution was prepared by mixing 2 mL of the stock solution and 2 mL of 0.1 N NaOH solution. Test groups 1, 3, and 5 (at room temperature) were shielded from light by wrapping with aluminum foil.
A stock solution was prepared by dissolving 5.37 mg of OAD2 2HCl in acetonitrile:water (40:60) to a final volume of 10 mL ([…]). For test group 7, the test solution was prepared by mixing 2 mL of the stock solution and 2 mL of 3% aqueous H2O2. For test group 8, the test solution was prepared by dissolving 5.58 mg to 5.64 mg of OAD2 2HCl in acetonitrile:water (40:60) to a final volume of 25 mL.
The samples in each test group were stored either at room temperature or at 60° C. and observed after the periods indicated in the Table below.
A validated, reverse phase liquid chromatography gradient method was applied to determine assay (content of the active ingredient). The column used was Supelco Ascentis Express RP-Amide, 150×3.0 mm, 2.7μ or equivalent column. Mobile phase A comprises 0.05% TFA in water (v/v). Mobile phase B comprises 0.05% TFA in acetonitrile:methanol (1:2) (v/v). The sample was run using a step gradient from time zero (50% mobile phase A) to 38 minutes (99% mobile phase B). The diluent used to dissolve the standard and sample was a 60:40 mixture of acetonitrile and water. Chromatographic peaks were detected using UV detector at 280 nm. Assay value was obtained by comparing peak responses, expressed as the peak area of a sample formulation of known concentration and the peak area obtained from a standard formulation of known concentration.
The impurities were quantitated using the assay procedure described above. […]

[2] = Forced degradation experiment of active ingredient (acid, alkali, oxidation, high temperature, light, high humidity), HPLC; format: physicochemical; design: Impurity B / Impurity E / Impurity F / Impurity G / Impurity I / Largest unknown impurity: unit not given here
Protocol: Preparation of solutions: • (1) destructive test article solution: 25 mg of OAD2 or a pharmaceutically acceptable salt thereof was placed into a 50 ml measuring flask. Diluent was added to dissolve it and the mixture was diluted to the scale mark, shaken well and used as a test article solution. • (2) test article solution destructed by acid: 25.35 mg of OAD2 or a pharmaceutically acceptable salt thereof was placed into a 50 ml measuring flask. 2 ml of 1 mol/L hydrochloric acid was added, and the mixture was mixed, stood at room temperature for 24 h, adjusted pH to neutral with 1 mol/L sodium hydroxide solution. Diluent was added to dilute the mixture to the scale mark. The mixture was shaken well, and used as the test article solution destructed by acid. • (3) test article solution destructed by alkali: 26.64 mg of OAD2 or a pharmaceutically acceptable salt thereof was placed into a 50 ml measuring flask. 2 ml of 1 mol/L sodium hydroxide solution was added, and the mixture was mixed, stood at room temperature for 24h, adjusted pH to neutral with 1 mol/L hydrochloric acid solution. Diluent was added to dilute the mixture to scale mark. The mixture was shaken well, and used as test article solution destructed by alkali. • (4) acid-base blank: 2 ml of 1 mol/L sodium hydroxide solution was placed into a 50 ml measuring flask. The solution was neutralized with 1 mol/L hydrochloric acid solution, then diluted to the scale mark with a diluent, and shaken well to serve as the acid-base destruction blank solution. • (5) test article solution destructed by oxidation: 28.10 mg of OAD2 or a pharmaceutically acceptable salt thereof was placed into a 50 ml measuring flask. 2 ml of 15% hydrogen peroxide was added, stood at room temperature for 9 h. The mixture was diluted to the scale mark with a diluent. […] It was dissolved and diluted to the scale mark with a diluent, shaken well, and used as the test article solution destructed by high temperature. • (8) test article solution destructed by light exposure: 25.12 mg of OAD2 or pharmaceutically acceptable salt thereof was accurately weighted, placed into a 50 ml measuring flask, stood under irradiation of light 4500 Lx+−500 Lx for 6 days. It was dissolved and diluted to the scale mark with a diluent, shaken well, and used as the test article solution destructed by light exposure. • (9) test article solution destructed by high-humidity destruction: 25.71 mg of OAD2 or a pharmaceutically acceptable salt thereof was placed into a 50 ml measuring flask, then the measuring flask was placed into a drier with KNO3 saturated solution at the bottom (humidity was 92.5%), stood for 5 days. It was dissolved and diluted to the scale mark with a diluent, shaken well, and used as the test article solution destructed by high-humidity destruction. • (10) blank solution that is not destructed, not destructed by high-temperature, not destructed by high-humidity and not destructed by light exposure: a diluent.
The measuring method: 2 μl of each of the above solutions (1)-(10) was injected into a liquid chromatograph, and the chromatograms were recorded. Among them, the results of the forced degradation experiment are shown in Table 13.1, and the results of the changes of various impurity components after the forced degradation are shown in Table 13.2. […]

[3] = test group 7: 1.5% solution of H2O2, RT, after 90 minutes

SMILES: CC[C@@H](c1ccccc1)N1Cc2cc3c(cc2C[C@H]1C(=O)N[C@@H](Cc1ccc(-c2ccnc(C)c2C)cc1)C(=O)O)OC[C@H](c1ccc(OCc2ccc(Cl)c(Cl)c2)cc1)O3 [OAD2 dihydrochloride, (S)-2-(3S,8S)-3-(4-(3,4-dichlorobenzyloxy)phenyl-7-((S)-1-phenylpropyl)-2,3,6,7,8,9-hexahydro-[1,4]-dioxino[2,3-g]isoquinolin-8-formylamino)-3-(4-(2,3-dimethylpyridin-4-yl)phenyl)propanoic acid dihydrochloride]
- growth of impurities by HPLC [1, 3]: significant increase in impurities
- loss of active ingredient [1, 3]: 10%
- growth of impurities or loss of active ingredient by HPLC ([1]; test groups 1-6 and 8: water, 0.05N HCl, 0.05N NaOH at RT or 60° C., 1 and 2 days, UV light (365 nm) RT 24 hours): no substantial growth in any impurities or loss of active ingredient

SMILES: CC[C@@H](c1ccccc1)N1Cc2cc3c(cc2C[C@H]1C(=O)N[C@@H](Cc1ccc(-c2ccnc(C)c2C)cc1)C(=O)O)OC[C@H](c1ccc(OCc2ccc(Cl)c(Cl)c2)cc1)O3 [OAD2, (S)-2-(3S,8S)-3-(4-(3,4-dichlorobenzyloxy)phenyl-7-((S)-1-phenylpropyl)-2,3,6,7,8,9-hexahydro-[1,4]-dioxino[2,3-g]isoquinolin-8-ylformylamino)-3-(4-(2,3-dimethylpyridin-4-yl)phenyl)propionic acid]
- Impurities C + D ([2]; Acid destruction): 0.03%
- Impurity A ([2]; Acid destruction): 0.13
- Impurity B ([2]; Acid destruction): Undetected
- Impurity E ([2]; Acid destruction): Undetected
- Impurity F ([2]; Acid destruction): 0.34
- Impurity G ([2]; Acid destruction): 0.05
- Impurity H ([2]; Acid destruction): Undetected
- Impurity I ([2]; Acid destruction): Undetected
- Largest unknown impurity ([2]; Acid destruction): 0.07
- Number of impurities (≥0.05%) ([2]; Acid destruction): 4
- Purity of main peak ([2]; Acid destruction): 99.4%
- Total Impurities ([2]; Acid destruction): 0.65%
- Impurities C + D ([2]; Alkali destruction): 0.05%
- Impurity A ([2]; Alkali destruction): 0.13
- Impurity B ([2]; Alkali destruction): 0.02
- Impurity E ([2]; Alkali destruction): Undetected
- Impurity F ([2]; Alkali destruction): 0.36
- Impurity G ([2]; Alkali destruction): 0.07
- Impurity H ([2]; Alkali destruction): Undetected
- Impurity I ([2]; Alkali destruction): Undetected
- Largest unknown impurity ([2]; Alkali destruction): 0.07
- Number of impurities (≥0.05%) ([2]; Alkali destruction): 4
- Purity of main peak ([2]; Alkali destruction): 99.3%
- Total Impurities ([2]; Alkali destruction): 0.73%
- Impurities C + D ([2]; High humidity destruction): 0.04%
- Impurity A ([2]; High humidity destruction): 0.12
- Impurity B ([2]; High humidity destruction): Undetected
- Impurity E ([2]; High humidity destruction): 0.01
- Impurity F ([2]; High humidity destruction): 0.31
- Impurity G ([2]; High humidity destruction): 0.04
- Impurity H ([2]; High humidity destruction): Undetected
- Impurity I ([2]; High humidity destruction): Undetected
- Largest unknown impurity ([2]; High humidity destruction): 0.08
- Number of impurities (≥0.05%) ([2]; High humidity destruction): 3
- Purity of main peak ([2]; High humidity destruction): 99.3%
- Total Impurities ([2]; High humidity destruction): 0.68%
- Impurities C + D ([2]; High temperature destruction): 0.08%
- Impurity A ([2]; High temperature destruction): 1.76
- Impurity B ([2]; High temperature destruction): 0.97
- Impurity E ([2]; High temperature destruction): 0.08
- Impurity F ([2]; High temperature destruction): 0.26
- Impurity G ([2]; High temperature destruction): 0.09
- Impurity H ([2]; High temperature destruction): 0.02
- Impurity I ([2]; High temperature destruction): Undetected
- Largest unknown impurity ([2]; High temperature destruction): 2.36
- Number of impurities (≥0.05%) ([2]; High temperature destruction): 25
- Purity of main peak ([2]; High temperature destruction): 92.2%
- Total Impurities ([2]; High temperature destruction): 7.8%
- Impurities C + D ([2]; Light exposure destruction): 0.01%
- Impurity A ([2]; Light exposure destruction): 1.13
- Impurity B ([2]; Light exposure destruction): 0.26
- Impurity E ([2]; Light exposure destruction): 0.12
- Impurity F ([2]; Light exposure destruction): 0.22
- Impurity G ([2]; Light exposure destruction): 0.03
- Impurity H ([2]; Light exposure destruction): 0.38
- Impurity I ([2]; Light exposure destruction): Undetected
- Largest unknown impurity ([2]; Light exposure destruction): 0.78
- Number of impurities (≥0.05%) ([2]; Light exposure destruction): 24
- Purity of main peak ([2]; Light exposure destruction): 93.1%
- Total Impurities ([2]; Light exposure destruction): 6.9%
- Impurities C + D ([2]; No destruction): 0.05%
- Impurity A ([2]; No destruction): 0.12
- Impurity B ([2]; No destruction): Undetected
- Impurity E ([2]; No destruction): Undetected
- Impurity F ([2]; No destruction): 0.31
- Impurity G ([2]; No destruction): 0.03
- Impurity H ([2]; No destruction): Undetected
- Impurity I ([2]; No destruction): Undetected
- Largest unknown impurity ([2]; No destruction): 0.07
- Number of impurities (≥0.05%) ([2]; No destruction): 3
- Purity of main peak ([2]; No destruction): 99.4%
- Total Impurities ([2]; No destruction): 0.6%
- Impurities C + D ([2]; Oxidative destruction): 0.18%
- Impurity A ([2]; Oxidative destruction): 0.36
- Impurity B ([2]; Oxidative destruction): 2.77
- Impurity E ([2]; Oxidative destruction): Undetected
- Impurity F ([2]; Oxidative destruction): 0.26
- Impurity G ([2]; Oxidative destruction): 0.20
- Impurity H ([2]; Oxidative destruction): Undetected
- Impurity I ([2]; Oxidative destruction): 0.02
- Largest unknown impurity ([2]; Oxidative destruction): 2.56
- Number of impurities (≥0.05%) ([2]; Oxidative destruction): 18
- Purity of main peak ([2]; Oxidative destruction): 91.6% and 91.8%
- Total Impurities ([2]; Oxidative destruction): 8.2%
